Measured values as given in the supplement of paper PMC10307832.

compound: NCC(=O)Nc1ccc(-n2nc(C(F)(F)F)cc2-c2ccc3c(ccc4ccccc43)c2)cc1 + CC(=O)c1c(C)c2cnc(Nc3ccc(N4CCNCC4)cn3)nc2n(C2CCCC2)c1=O [Palbociclib] (partner 0.5 µM); assay: relative viability (nuclei count vs DMSO), 5 days (fraction); higher = more cells survive; details: first compound 0.02 µM
Procedure, shortened: (§1)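 Lung cancer cell lines were seeded in 1536-well plates and dosed by pin tool the next day, with either a single drug or a fixed anchor-drug dose combined with five library-drug doses (not always all listed) spaced in √10 steps. Five days later, one step fixed the cells and stained their nuclei (final 0.05% Triton X-100, 1% formaldehyde, 1 ug/ml Hoechst), and nuclei were counted on 4× images. Relative viability is the nuclei count in treated wells divided by the count in vehicle wells, and each value is the median of duplicate plates.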

First: EKVX
Second: LC-2-ad
The relative viability of the first is lower: 0.436 for the first, 0.507 for the second.

Compared with NCI-H1944, NCI-H1975 is higher in relative viability: 0.333 for the first, 0.657 for the second.

Compared with RERF-LC-KJ, ABC-1 is lower in relative viability: 0.936 for the first, 0.725 for the second.

Going from NCI-H358 to NCI-H650, the relative viability rises from 0.158 to 0.377.

PC-3 [JPC-3] showed a relative viability of 0.536.

same assay, conditions: first compound 0.06325 µM

Compared with EKVX, LC-2-ad is higher in relative viability: 0.417 for the first, 0.462 for the second.

Compared with NCI-H1944, NCI-H1975 is higher in relative viability: 0.353 for the first, 0.61 for the second.

Going from RERF-LC-KJ to ABC-1, the relative viability falls from 1.2 to 0.592.

Going from NCI-H358 to NCI-H650, the relative viability rises from 0.111 to 0.315.

PC-3 [JPC-3] gave a relative viability of 0.561.

same assay, conditions: first compound 0.2 µM

First: EKVX
Second: LC-2-ad
The relative viability of the first is lower: 0.397 for the first, 0.463 for the second.

Compared with NCI-H1944, NCI-H1975 is higher in relative viability: 0.35 for the first, 0.615 for the second.

Compared with RERF-LC-KJ, NCI-H358 is lower in relative viability: 1.03 for the first, 0.136 for the second.

Compared with NCI-H650, PC-3 [JPC-3] is higher in relative viability: 0.329 for the first, 0.578 for the second.

same assay, conditions: first compound 0.6325 µM

Compared with EKVX, LC-2-ad is higher in relative viability: 0.348 for the first, 0.469 for the second.

Compared with NCI-H1944, NCI-H1975 is higher in relative viability: 0.32 for the first, 0.485 for the second.

Going from RERF-LC-KJ to ABC-1, the relative viability falls from 1.06 to 0.807.

First: NCI-H358
Second: NCI-H650
The relative viability of the first is lower: 0.122 for the first, 0.358 for the second.

With PC-3 [JPC-3] the relative viability was 0.524.

same assay, conditions: first compound 2 µM

First: EKVX
Second: LC-2-ad
The relative viability of the first is lower: 0.382 for the first, 0.473 for the second.

Compared with NCI-H1944, NCI-H1975 is higher in relative viability: 0.355 for the first, 0.586 for the second.

First: RERF-LC-KJ
Second: ABC-1
The relative viability of the first is higher: 1.02 for the first, 0.658 for the second.

Going from NCI-H358 to NCI-H650, the relative viability rises from 0.145 to 0.296.

For PC-3 [JPC-3], the relative viability was 0.571.

compound: NCC(=O)Nc1ccc(-n2nc(C(F)(F)F)cc2-c2ccc3c(ccc4ccccc43)c2)cc1 + O=C(c1cc(Cc2n[nH]c(=O)c3ccccc23)ccc1F)N1CCN(C(=O)C2CC2)CC1 [Olaparib] (partner 8 µM); assay: as above; details: first compound 0.02 µM
Procedure, shortened: as §1

Compared with EKVX, LC-2-ad is lower in relative viability: 0.973 for the first, 0.676 for the second.

Compared with NCI-H1944, NCI-H1975 is higher in relative viability: 0.463 for the first, 0.763 for the second.

Going from RERF-LC-KJ to ABC-1, the relative viability falls from 0.98 to 0.594.

Going from NCI-H358 to NCI-H650, the relative viability falls from 0.613 to 0.395.

PC-3 [JPC-3] gave a relative viability of 1.19.

same assay, conditions: first compound 0.06325 µM

Going from EKVX to LC-2-ad, the relative viability falls from 0.966 to 0.801.

Going from NCI-H1944 to NCI-H1975, the relative viability rises from 0.384 to 0.847.

Compared with RERF-LC-KJ, ABC-1 is lower in relative viability: 0.97 for the first, 0.671 for the second.

Compared with NCI-H358, NCI-H650 is lower in relative viability: 0.58 for the first, 0.415 for the second.

PC-3 [JPC-3] gave a relative viability of 1.2.

same assay, conditions: first compound 0.2 µM

First: EKVX
Second: LC-2-ad
The relative viability of the first is higher: 0.882 for the first, 0.728 for the second.

Compared with NCI-H1944, NCI-H1975 is higher in relative viability: 0.4 for the first, 0.887 for the second.

Compared with RERF-LC-KJ, NCI-H358 is lower in relative viability: 1.01 for the first, 0.632 for the second.

First: NCI-H650
Second: PC-3 [JPC-3]
The relative viability of the first is lower: 0.421 for the first, 1.22 for the second.

same assay, conditions: first compound 0.6325 µM

Compared with EKVX, LC-2-ad is lower in relative viability: 0.935 for the first, 0.719 for the second.

Going from NCI-H1944 to NCI-H1975, the relative viability rises from 0.388 to 0.744.

First: RERF-LC-KJ
Second: ABC-1
The relative viability of the first is higher: 0.985 for the first, 0.921 for the second.

First: NCI-H358
Second: NCI-H650
The relative viability of the first is higher: 0.636 for the first, 0.399 for the second.

In the case of PC-3 [JPC-3], the relative viability is reported as 1.08.

same assay, conditions: first compound 2 µM

Compared with EKVX, LC-2-ad is lower in relative viability: 1.13 for the first, 0.698 for the second.

Going from NCI-H1944 to NCI-H1975, the relative viability rises from 0.397 to 0.873.

First: RERF-LC-KJ
Second: ABC-1
The relative viability of the first is higher: 0.897 for the first, 0.78 for the second.

Compared with NCI-H358, NCI-H650 is lower in relative viability: 0.606 for the first, 0.396 for the second.

Cell Line PC-3 [JPC-3] has a relative viability of 1.18.
